The target of assay [1] is T1, Bromodomain-containing protein 9 (Homo sapiens, UniProt Q9H8M2).
T1 sequence (Q9H8M2 whole entry): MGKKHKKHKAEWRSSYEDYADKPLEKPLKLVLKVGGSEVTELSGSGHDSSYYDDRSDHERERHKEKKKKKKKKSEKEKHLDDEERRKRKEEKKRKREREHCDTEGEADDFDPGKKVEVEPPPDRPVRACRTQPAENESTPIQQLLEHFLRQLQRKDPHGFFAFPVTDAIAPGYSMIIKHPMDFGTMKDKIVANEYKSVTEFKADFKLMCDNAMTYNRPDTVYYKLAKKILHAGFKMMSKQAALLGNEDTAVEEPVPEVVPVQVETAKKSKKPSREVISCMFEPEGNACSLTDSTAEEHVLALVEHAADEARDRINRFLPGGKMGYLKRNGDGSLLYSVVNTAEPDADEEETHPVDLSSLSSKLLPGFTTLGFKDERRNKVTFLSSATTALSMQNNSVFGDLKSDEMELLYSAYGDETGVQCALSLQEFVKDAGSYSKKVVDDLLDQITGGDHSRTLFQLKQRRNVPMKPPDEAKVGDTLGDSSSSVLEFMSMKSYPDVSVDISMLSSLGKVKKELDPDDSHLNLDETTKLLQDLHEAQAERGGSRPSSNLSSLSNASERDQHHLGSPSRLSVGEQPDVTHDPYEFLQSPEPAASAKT
Put plainly: Inhibition of His-tagged BRD9 (unknown origin) after 30 mins by alphaScreen assay.

For assay [2], the target named is T2, Peregrin (Homo sapiens, UniProt P55201).
T2 sequence (P55201 whole entry): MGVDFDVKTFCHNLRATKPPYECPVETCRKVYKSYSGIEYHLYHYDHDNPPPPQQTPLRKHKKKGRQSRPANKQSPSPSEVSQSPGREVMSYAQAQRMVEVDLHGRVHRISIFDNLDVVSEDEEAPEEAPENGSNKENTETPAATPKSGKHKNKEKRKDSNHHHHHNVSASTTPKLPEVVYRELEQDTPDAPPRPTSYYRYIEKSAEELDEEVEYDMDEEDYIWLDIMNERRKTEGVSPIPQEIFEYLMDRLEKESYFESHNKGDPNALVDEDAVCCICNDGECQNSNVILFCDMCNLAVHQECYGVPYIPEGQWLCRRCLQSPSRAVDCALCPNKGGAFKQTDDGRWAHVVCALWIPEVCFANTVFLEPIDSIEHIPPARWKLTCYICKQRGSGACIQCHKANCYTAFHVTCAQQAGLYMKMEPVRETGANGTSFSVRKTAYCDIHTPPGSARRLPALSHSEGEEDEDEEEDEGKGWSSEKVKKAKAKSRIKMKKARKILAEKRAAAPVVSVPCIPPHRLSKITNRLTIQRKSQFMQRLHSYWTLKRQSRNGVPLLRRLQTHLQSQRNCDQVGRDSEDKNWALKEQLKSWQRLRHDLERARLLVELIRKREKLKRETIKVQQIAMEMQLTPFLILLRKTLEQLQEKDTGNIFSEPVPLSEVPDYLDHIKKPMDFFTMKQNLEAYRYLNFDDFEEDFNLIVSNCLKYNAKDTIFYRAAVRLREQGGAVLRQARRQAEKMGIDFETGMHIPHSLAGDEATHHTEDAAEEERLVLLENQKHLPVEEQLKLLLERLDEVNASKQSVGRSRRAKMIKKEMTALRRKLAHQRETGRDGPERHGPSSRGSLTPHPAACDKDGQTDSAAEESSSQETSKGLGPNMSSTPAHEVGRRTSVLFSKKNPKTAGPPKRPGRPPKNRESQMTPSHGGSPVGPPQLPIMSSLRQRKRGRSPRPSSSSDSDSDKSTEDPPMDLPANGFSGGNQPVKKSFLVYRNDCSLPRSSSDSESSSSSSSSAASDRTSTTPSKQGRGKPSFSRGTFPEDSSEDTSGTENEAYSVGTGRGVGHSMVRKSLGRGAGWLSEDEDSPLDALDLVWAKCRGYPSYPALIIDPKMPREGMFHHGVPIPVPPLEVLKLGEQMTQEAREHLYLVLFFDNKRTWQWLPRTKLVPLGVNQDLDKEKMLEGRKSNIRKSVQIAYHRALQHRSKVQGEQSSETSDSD
Put plainly: Inhibition of His-tagged BRPF1 (unknown origin) after 30 mins by alphaScreen assay. A general note: Alpha assays give light when donor and acceptor beads are brought close together.

In assay [3] the target is T2, Peregrin. Kind of assay: Inhibition of BRPF1B (unknown origin) binding to histone H3.3 by nonoBRET assay.

By IC50 is commonly meant the concentration that inhibits the measured activity by half. Higher therefore signals weaker potency.

In the case of `COc1cc(C#N)ccc1S(=O)(=O)Nc1ccc2c(c1)cc(C)c(=O)n2C`, the half-inhibitory concentration (IC50) in assay [1] came to 4.4 µM; against Peregrin [2], 0.114 µM; on Peregrin [3], 0.07 µM.
